In patent publication US20250170107A1, “IMIDAZOPYRIDINE INHIBITORS OF TYROSINE KINASE” (BridGene Biosciences. Inc., priority 2022, published 2025):

Key:
[1] = target: T1, FLT3 (Homo sapiens, UniProt P36888); test: Caliper mobility shift kinase inhibition assay, recombinant FLT3; format: biochemical; conditions: recombinant FLT-3 0.1 nM, ATP 95 μM, incubation 3 hr, room temperature
T1 construct: purchased ThermoFisher PV3182
T1 sequence (P36888 27-993): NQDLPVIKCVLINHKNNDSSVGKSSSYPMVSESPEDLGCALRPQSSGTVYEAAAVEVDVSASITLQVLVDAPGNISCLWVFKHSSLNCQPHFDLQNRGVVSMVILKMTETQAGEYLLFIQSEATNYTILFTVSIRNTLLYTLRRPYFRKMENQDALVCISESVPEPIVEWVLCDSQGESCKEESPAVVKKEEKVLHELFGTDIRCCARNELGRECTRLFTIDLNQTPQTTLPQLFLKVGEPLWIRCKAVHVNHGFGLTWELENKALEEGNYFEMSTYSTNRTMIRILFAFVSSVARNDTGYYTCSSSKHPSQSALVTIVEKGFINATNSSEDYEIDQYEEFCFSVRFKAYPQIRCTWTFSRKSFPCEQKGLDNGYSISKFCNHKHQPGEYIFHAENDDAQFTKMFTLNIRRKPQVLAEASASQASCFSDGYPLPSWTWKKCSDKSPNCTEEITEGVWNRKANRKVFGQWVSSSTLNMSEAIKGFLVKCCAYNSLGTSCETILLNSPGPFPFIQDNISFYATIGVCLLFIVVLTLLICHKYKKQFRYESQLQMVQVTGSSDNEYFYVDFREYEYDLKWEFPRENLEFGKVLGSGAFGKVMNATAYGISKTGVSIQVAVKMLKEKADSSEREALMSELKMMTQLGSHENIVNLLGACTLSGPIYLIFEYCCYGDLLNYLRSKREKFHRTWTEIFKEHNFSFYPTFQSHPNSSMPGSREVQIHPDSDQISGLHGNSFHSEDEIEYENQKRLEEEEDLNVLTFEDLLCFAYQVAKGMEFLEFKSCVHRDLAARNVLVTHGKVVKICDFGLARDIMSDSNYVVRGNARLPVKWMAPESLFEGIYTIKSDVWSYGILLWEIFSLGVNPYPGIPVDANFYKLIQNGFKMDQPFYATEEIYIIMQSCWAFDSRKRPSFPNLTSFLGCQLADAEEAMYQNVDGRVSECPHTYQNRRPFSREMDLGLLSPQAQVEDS
Protocol: Compounds' inhibition of recombinant kinases (FLT3, KIT) was measured using Caliper mobility shift assay, which is based on the difference in capillary electrophoresis mobility of a fluorescent-tagged peptide as a result of a phosphorylation by the kinase under study. Reactions were started by the addition of various concentrations of a compound (originally in DMSO solution) to a kinase solution in assay buffer followed by addition of a mixture of ATP and a fluorescent-tagged peptide substrate in assay buffer. Concentrations of the enzyme, ATP and thepeptide were pre-optimized so that 15% substrate conversion to ensure initial velocity measurements. After incubation for 3 hours at room temperature, the kinase reaction was quenched by the addition of a concentrated EDTA solution before analysis on a LabChip EZ Reader II to yield percentage inhibition by comparing to the DMSO control. Table 2 below summarizes the assay conditions for the characterization of the kinase inhibition properties of the disclosed compounds.

[2] = test system: MV4-11; test: Cell viability assay (CellTiter-Glo), FLT3 cell-based assay; conditions: Homo sapiens, MV4-11 cells, 72 hr at 37° C., 0.1% DMSO
Protocol: Cell viability assay was performed based on the following brief procedures. Cells were plated at the density of 5K/well with volume of 180 μL in 96-well white plate and clear bottom plates. 20 μL of veh. or compound was added at proper concentration to the well. The final volume is 200 μL, with final conc. of DMSO=0.1%, 11 points, triplicates. The cells were then treated at 37° C. in the TC incubator for 72 hr. Equal volume (200 μL) of CellTiter-Glo reagent (Promega) was added to the well and protect from light at room temperature for 15 min. The chemiluminescence was measured with EnSight (Perkin Elmer). GraphPad Prism non-linear regression, Log[inhibitor] response with four parameters were used to calculate GI50.

[3] = target: T2, KIT (Homo sapiens, UniProt P10721); test: Caliper mobility shift kinase inhibition assay, recombinant KIT; format: biochemical; conditions: recombinant KIT 0.9 nM, ATP 400 μM, incubation 17 hr (Table 2)
T2 construct: purchased BPS 40250
T2 sequence (P10721 26-976): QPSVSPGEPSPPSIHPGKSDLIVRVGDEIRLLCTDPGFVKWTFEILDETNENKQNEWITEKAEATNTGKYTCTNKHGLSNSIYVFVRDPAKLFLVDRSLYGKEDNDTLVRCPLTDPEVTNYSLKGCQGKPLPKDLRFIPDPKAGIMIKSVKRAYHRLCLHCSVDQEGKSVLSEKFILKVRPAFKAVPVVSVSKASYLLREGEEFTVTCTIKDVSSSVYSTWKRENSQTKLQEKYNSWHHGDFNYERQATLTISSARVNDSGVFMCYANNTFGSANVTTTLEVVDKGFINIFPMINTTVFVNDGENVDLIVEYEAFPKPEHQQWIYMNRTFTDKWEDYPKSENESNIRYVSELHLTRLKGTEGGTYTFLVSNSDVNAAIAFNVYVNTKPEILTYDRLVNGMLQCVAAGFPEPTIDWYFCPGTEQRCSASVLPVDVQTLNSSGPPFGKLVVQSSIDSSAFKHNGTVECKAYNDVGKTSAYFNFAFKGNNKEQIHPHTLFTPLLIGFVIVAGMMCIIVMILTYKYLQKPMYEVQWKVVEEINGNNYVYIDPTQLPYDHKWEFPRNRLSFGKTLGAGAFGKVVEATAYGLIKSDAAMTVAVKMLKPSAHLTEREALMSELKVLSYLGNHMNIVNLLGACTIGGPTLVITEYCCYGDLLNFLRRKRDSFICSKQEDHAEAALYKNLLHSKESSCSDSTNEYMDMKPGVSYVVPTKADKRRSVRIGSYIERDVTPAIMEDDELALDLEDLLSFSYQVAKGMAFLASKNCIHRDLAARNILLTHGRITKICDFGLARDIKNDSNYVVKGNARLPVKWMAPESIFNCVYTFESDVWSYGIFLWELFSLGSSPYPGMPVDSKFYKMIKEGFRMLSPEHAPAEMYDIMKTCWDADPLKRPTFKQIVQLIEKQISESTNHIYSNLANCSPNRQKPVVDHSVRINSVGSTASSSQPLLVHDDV

| IC50 [1] [nM] | GI50 [2] [nM] | IC50 [3] [nM] | SMILES |
| --- | --- | --- | --- |
| < 1 | 10 to 100 | < 1 | C=CC(=O)N1C[C@H](O)C[C@H]1C(=O)NCCn1cnc2cnc(Nc3ncc(-c4ccc(F)cc4)s3)cc21 [Example 13, (2S,4R)-N-[2-[6-[[5-(4-fluorophenyl)thiazol-2-yl]amino]imidazo[4,5-c]pyridin-1-yl]ethyl]-4-hydroxy-1-prop-2-enoylpyrrolidine-2-carboxamide] |
| < 1 | 10 to 100 | 1 to 10 | C=CC(=O)N1CCOC[C@H]1C(=O)NCCn1cnc2cnc(Nc3ncc(-c4ccncc4)s3)cc21 [Example 1, (3S)-4-prop-2-enoyl-N-[2-[6-[[5-(4-pyridyl)thiazol-2-yl]amino]imidazo[4,5-c]pyridin-1-yl]ethyl]morpholine-3-carboxamide] |
| < 1 | < 10 | < 1 | C=CC(=O)N1CC[C@H](O)[C@H]1C(=O)NCCn1cnc2cnc(Nc3ncc(-c4ccc(F)cc4)s3)cc21 [Example 15, (2S,3S)-N-[2-[6-[[5-(4-fluorophenyl)thiazol-2-yl]amino]imidazo[4,5-c]72yridine-1-yl]ethyl]-3-hydroxy-1-prop-2-enoylpyrrolidine-2-carboxamide] |
| 1 to 10 | < 10 | 10 to 100 | C=C(F)C(=O)N1CCC[C@H]1C(=O)NCCn1cnc2cnc(Nc3ncc(-c4ncccc4F)s3)cc21 [Example 10] |
| < 1 | 10 to 100 | < 1 | CN(C)C/C=C/C(=O)N1CC[C@H](O)[C@H]1C(=O)NCCn1cnc2cnc(Nc3ncc(-c4ncccc4F)s3)cc21 [Example 26, (2S,3S)-1-[(E)-4-(dimethylamino)but-2-enoyl]-N-[2-[6-[[5-(3-fluoro-2-pyridyl)thiazol-2-yl]amino]imidazo[4,5-c]pyridin-1-yl]ethyl]-3-hydroxy-pyrrolidine-2-carboxamide] |
| < 1 | < 10 | < 1 | C=CC(=O)N1CCOC[C@H]1C(=O)NCCn1cnc2cnc(Nc3ncc(-c4ncncc4F)s3)cc21 [Example 22, (3S)-N-[2-[6-[[5-(5-fluoropyrimidin-4-yl)thiazol-2-yl]amino]imidazo[4,5-c]pyridin-1-yl]ethyl]-4-prop-2-enoyl-morpholine-3-carboxamide] |
